The subject of assay [1] is human TM cells. Put plainly: Whole cell patch clamp ion conductances of human TM cells. The assay is classed as cell-based. Here is the method:
Further studies conducted with agents known to block Cl and K channels attenuate the swelling-activated regulatory volume decrease in TM cells and niflumic acid reduces both cell volume and intracellular [Cl] of TM cells. In these studies, human TM cells were cultured from donor eyes and used between passages three and eight. Routine whole cell patch clamp methods were used to assess conductances of TM cells in isotonic (290 mOsm) and hypotonic (230 mOsm) media, with or without NPPB, DIDS, TEA or niflumic acid. Conductances were determined from current/voltage plots, generated using a ramp protocol. […] The reversal potential observed in the presence of hypotonic medium was close to the calculated reversal potential for Cl. Switching to an external medium containing reduced Cl shifted the reversal potential toward that calculated for the low Cl medium. Treating the TM cells with the Cl channel blocker NPPB (100 μM) abolished the swelling-activated conductance in a manner reversed by subsequent washout of NPPB. […] Finally, treatment of the cells with the K channel blocker TEA (1 mM) also abolished the niflumic acid-activated TM cell conductance.
Human TM and SC cells grown to subconfluence are gently trypsinized on the day of the experiment and immediately exposed to trypsin-neutralizing solution and then allowed to settle onto standard square (22×22-mm) glass coverslips for 30 minutes before use. Routine patch clamp methods were used as described previously Barakat, A. I., et al., Circulation Research, 85: 820-828, 1999; Hamill, O. P. et al., Pflügers Archives, 391: 85-100, 1981; Mauro, T. et al., J of Invest. Dermatology, 105: 203-208, 1995; Pappone, P. A. et al., J. of Physiology, 306:377-410, 1980; Pappone, P. A. et al., J of Gen. Physiology, 106: 231-258, 1995; Pappone, P. A. et al., Amer. J. of Physiology: Cell Physiology, 264: C1014-C1019, 1993; Wilson, S. M. et al., J. of Gen. Physiology, 113: 125-138, 1999. Using the whole cell patch clamp mode, conductances were assessed for isotonic and hypotonic media. By assessing current/voltage (I/V) relationships and reversal potentials for the TM and SC cells while using specific concentrations of Cl in the pipette and bath media, the nature of the conductances observed can be determined.
Whole cell currents were measured at room temperature in a Warner recording/perfusion chamber (Warner Instrument Corp.) using standard whole-cell patch clamp techniques as described previously, Lucero, M. T. et al., J. of Gen. Physiology, 95:523-544, 1999. Thick-walled borosilicate capillaries (Sutter Instruments, Inc., Novato, Calif.) were used to manufacture pipettes with resistances of 3 to 5 MW. The voltage offset between the patch pipette and the bath solution were nulled immediately before patch formation. An agar bridge containing […] KCl was used to ground the bath solution. Voltages were recorded from a patch-clamp amplifier (AXOPATCH 200A, Axon Instruments). Data was collected on a Macintosh personal computer using Pulse+Pulsefit software (HEKA Elektronik). Whole-cell currents were recorded from single (sub confluent) cells with membrane capacitances nulled through the patch-clamp amplifier. The voltage ramp protocol included a voltage step from the holding potential to +60 mV for 40 ms followed by a ramp to −100 mV over a period of 400 ms followed by a return to the holding potential. During the protocol, voltage ramps were conducted once every 5 seconds for 10 minutes, yielding 120 traces. Conductances were computed by taking the derivative of a least-squares straight line fit to the I-V data plots using Igor Pro Software (Wavemetrics, Inc.). In cases in which the I-V plots are not linear over the entire voltage ramp (as in FIGS. 6AB), computation of the whole-cell conductance were restricted to a linear range, typically 0 to +60 mV. […]

For assay [2], the system named is human TM cells. Put plainly: Intracellular volume of human TM cells (14C-urea/14C-sucrose water space or COULTER COUNTER electronic cell sizing), isotonic medium. The assay is classed as cell-based. The settings on record: human TM cells. As for the experimental part: The intracellular volume of human and bovine TM cells was evaluated by two methods: 1) radioisotopic evaluation of TM monolayer intracellular water space using ^14C-urea and ^14C-sucrose as markers of total and extracellular space, respectively; and 2) electronic cell sizing of suspended TM cells, using a COULTER COUNTER™ assay (Coulter Electronics, Ltd., Hialeah, Fla.). Details of these methods have been described previously by O'Donnell (O'Donnell, M. E., supra, 1993) the entirety of which is incorporated herein by reference.
By the first method, cell monolayers were preequilibrated for 30 minutes in Hepes MEM at 37° C. in an air atmosphere, then incubated for 20 minutes in Hepes MEM containing 0 or 10 μM bumetamide, ethacrynic acid, or other agents to be tested, and finally incubated for 10 minutes in the same medium containing either ^14C-urea or ^14C-sucrose (both at 1 μCi/ml). Monolayers were then rinsed with isotonic ice-cold MgCl2 and radioactivity of SDS extracts determined by liquid scintillation. Specific activities (counts per minute/ml) of ^14C-urea and ^14C-sucrose in the assay medium were determined and used to calculate water space associated with trapped radioactivity (expressed as μl/mg protein. Intracellular volume was calculated as the difference between the water space determined for ^14C-urea (a marker for intracellular plus trapped extracellular space) and ^14C-sucrose (a marker for trapped extracellular space).
By the second method, TM cells were trypsinized briefly in Ca-free medium, then rinsed with medium containing trypsin inhibitor and suspended in Hepes MEM. Mean cell volumes were then analyzed by electronic cell sizing on a COULTER COUNTER™ radioassay (Model ZM) with channelizer (C256), using at least 50,000 cells per data point and an orifice diameter of 140 μm. Aliquots of suspended cells were diluted into Hepes MEM containing the tonicity and/or agents to be evaluated. Mean cell volumes of each suspension aliquot were followed over time, starting at 1 minute after addition of cells to the assay media. Cell suspensions were maintained at 37° C. throughout the assay period. Absolute volumes (picoliters/cell) were calculated from distribution curves of cell diameter, using a standard curve generated by polystyrene latex beads of known diameter.
Human TM cells were exposed to isotonic medium ±niflumic acid (10 or 100 μM)±10 μM bumetamide. Cell volume was assessed by COULTER COUNTER™ electronic cell sizing over the time course shown, using TM cells in suspension. Note that niflumic acid (NA) alone decreases volume of the TM cells and that exposing the cells to NA plus bumetamide causes a further decrease in TM cell volume. Data represent means of two experiments (all conditions shown tested in both experiments).

The structures appear in SMILES notation. “Also recorded” adds a separate entry of the source.

In the case of `O=C(O)c1cccnc1Nc1cccc(C(F)(F)F)c1` [niflumic acid], in the assay on human TM cells [1] (human TM cell, 100 μM niflumic acid, calculated reversal potentials Cl −22 mV, K −82 mV), the “reversal potential of the niflumic acid-activated conductance” value is listed as “very close to the Cl reversal potential; also recorded: quite close to the calculated reversal potential for Cl”. Also, the “niflumic acid-activated conductance, dependence on bath ions” value in the assay with human TM cells [1] (human TM cells, niflumic acid 100 μM, K-free or Cl-free medium) is on record as “abolished in K-free medium but not in Cl-free medium”. The “ion conductance of TM cells” value in the assay on human TM cells [1] (normal human TM cells, isotonic bath, niflumic acid 100 μM) was “activate an ion conductance; also recorded: rapid increase in conductance”. The “TM cell volume in isotonic medium (resting volume)” value in the assay with human TM cells [2] (niflumic acid 10 μM) and in the assay on human TM cells [2] (niflumic acid 100 μM) was “decreased” each time.

(Values after patent US20020177625A1, “Class of glaucoma drugs to enhance aqueous humor outflow and lower intra-ocular pressure” (The Regents of the University of California, a California …, priority 2001, published 2002).)
